According to patent US20160102103A1, “SUBSTITUTED PYRIDINE COMPOUNDS HAVING HERBICIDAL ACTIVITY” (BASF SE, priority 2013, published 2016):

What was measured:
Type in all cases: in vivo
Capsella bursa-pastoris = test: greenhouse post-emergence herbicidal test, CAPBP; details: application rate 0.25 kg/ha, scale from 0 to 100
Text: (§1) The seeds of the test plants were sown separately for each species. For the post-emergence treatment, the test plants were first grown to a height of 3 to 15 cm, depending on the plant habit, and only then treated with the active ingredients which had been suspended or emulsified in water. For this purpose, the test plants were either sown directly and grown in the same containers, or they were first grown separately as seedlings and transplanted into the test containers a few days prior to treatment. Depending on the species, the plants were kept at 10-25° C. or 20-35° C., respectively. The test period extended over 2 to 4 weeks. During this time, the plants were tended, and their response to the individual treatments was evaluated. Evaluation was carried out using a scale from 0 to 100. 100 means no emergence of the plants, or complete destruction of at least the aerial moieties, and 0 means no damage, or normal course of growth. A good herbicidal activity is given at values of at least 70 and a very good herbicidal activity is given at values of at least 85. The plants used in the greenhouse experiments were of the following species: [table]

Polygonum convolvulus = test: greenhouse post-emergence herbicidal test, POLCO; details: application rate 0.125 kg/ha, scale from 0 to 100
Text: as §1

Setaria faberi = test: greenhouse post-emergence herbicidal test, SETFA; details: application rate 0.125 kg/ha, scale from 0 to 100
Text: as §1

Setaria viridis = test: greenhouse post-emergence herbicidal test, SETVI; details: scale from 0 to 100
Text: as §1

Abutilon theophrasti = test: greenhouse post-emergence herbicidal test, ABUTH; details: scale from 0 to 100
Text: as §1

Echinocloa crus-galli = test: greenhouse post-emergence herbicidal test, ECHCG; details: scale from 0 to 100
Text: as §1

Thlaspi arvense = test: greenhouse post-emergence herbicidal test, THLAR; details: application rate 0.25 kg/ha, scale from 0 to 100
Text: as §1

Amaranthus retroflexus = test: greenhouse post-emergence herbicidal test, AMARE; details: application rate 0.271 kg/ha, scale from 0 to 100
Text: as §1

CC1c2cccnc2C(OC(=O)C(C)(C)C)=C(c2c(Cl)cnc(Cl)c2Cl)S1(=O)=O (stereo not shown) [Compound I-7]
herbicidal activity against CAPBP (Capsella bursa-pastoris): very good herbicidal activity (a very good herbicidal activity is given at values of at least 85)

CC1(C)c2cccnc2C(O)=C(c2c(Cl)cnc(Cl)c2F)S1(=O)=O [Compound I-39]
herbicidal activity against POLCO (Polygonum convolvulus): good herbicidal activity (A good herbicidal activity is given at values of at least 70)

CC1(C)c2cccnc2C(O)=C(c2c(F)cnc(Cl)c2Br)S1(=O)=O [Compound I-28]
herbicidal activity against SETFA (Setaria faberi): very good herbicidal activity (a very good herbicidal activity is given at values of at least 85)

CC(C)(C)C(=O)OC1=C(c2c(Cl)cnc(Cl)c2Cl)S(=O)(=O)C2(CC2)c2cccnc21 [Compound I-11]
herbicidal activity against SETVI (Setaria viridis; application rate 0.50 kg/ha): very good herbicidal activity (a very good herbicidal activity is given at values of at least 85)
herbicidal activity against ABUTH (Abutilon theophrasti; application rate 0.50 kg/ha): very good herbicidal activity (a very good herbicidal activity is given at values of at least 85)
herbicidal activity against ECHCG (Echinocloa crus-galli; application rate 0.50 kg/ha): very good herbicidal activity (a very good herbicidal activity is given at values of at least 85)

Cc1c(Cl)ncc(F)c1C1=C(O)c2ncccc2CS1(=O)=O [Compound I-36]
herbicidal activity against ECHCG (Echinocloa crus-galli; application rate 1.0 kg/ha): good herbicidal activity (A good herbicidal activity is given at values of at least 70)

O=S1(=O)Cc2cccnc2C(O)=C1c1c(Br)cnc(Cl)c1F [Compound I-40]
herbicidal activity against ECHCG (Echinocloa crus-galli; application rate 0.125 kg/ha): good herbicidal activity (A good herbicidal activity is given at values of at least 70)

COc1c(Cl)ncc(Cl)c1C1=C(OC(=O)C(C)(C)C)c2ncccc2CS1(=O)=O [Compound I-13]
herbicidal activity against SETVI (Setaria viridis; application rate 0.25 kg/ha): good herbicidal activity (A good herbicidal activity is given at values of at least 70)

O=S1(=O)Cc2cccnc2C(O)=C1c1c(F)cnc(Cl)c1Br [Compound I-27]
herbicidal activity against ECHCG (Echinocloa crus-galli; application rate 0.25 kg/ha): very good herbicidal activity (a very good herbicidal activity is given at values of at least 85)

O=S1(=O)Cc2cccnc2C(O)=C1c1c(Cl)cncc1Cl [Compound I-1]
herbicidal activity against ABUTH (Abutilon theophrasti; application rate 0.25 kg/ha): very good herbicidal activity (a very good herbicidal activity is given at values of at least 85)

O=S1(=O)C(c2c(Cl)cnc(Cl)c2Cl)=C(O)c2ncccc2C12CC2 [Compound I-12]
herbicidal activity against THLAR (Thlaspi arvense): very good herbicidal activity (a very good herbicidal activity is given at values of at least 85)

COc1c(Cl)ncc(Cl)c1C1=C(O)c2ncccc2C(C)(C)S1(=O)=O [Compound I-16]
herbicidal activity against ABUTH (Abutilon theophrasti; application rate 0.125 kg/ha): very good herbicidal activity (a very good herbicidal activity is given at values of at least 85)

COc1c(Cl)ncc(Cl)c1C1=C(OC(=O)C(C)(C)C)c2ncccc2C2(CC2)S1(=O)=O [Compound I-19]
herbicidal activity against SETVI (Setaria viridis; application rate 0.271 kg/ha): very good herbicidal activity (a very good herbicidal activity is given at values of at least 85)
herbicidal activity against AMARE (Amaranthus retroflexus): very good herbicidal activity (a very good herbicidal activity is given at values of at least 85)
herbicidal activity against ABUTH (Abutilon theophrasti; application rate 0.271 kg/ha): very good herbicidal activity (a very good herbicidal activity is given at values of at least 85)
